The record followed here is BindingDB's records for doi:10.1016/j.chembiol.2005.02.004 (Purdue University, 2005).

The structures appear in SMILES notation. Numbered stars: 1 amine (or outer) side, 2 acyl side, 3 side chain; on linkers, the order of the positions; unused ones are H or OH. Bridge positions count the residues as written; N and C are the ends. Square brackets hold non-standard residues; d marks the D form. Peptide text beside a SMILES is read from it. I, II: the chains in the order shown. * marks the point of attachment. C16 diacid = O=C(O)CCCCCCCCCCCCCCC(=O)*; X1 = NC(O)C[C@H](N[*:1])C(=O)[*:2]

The first assay concerns the target T1, Capsid scaffolding protein (Human herpesvirus 1 (strain 17), UniProt P10210).
T1 sequence (P10210 whole entry): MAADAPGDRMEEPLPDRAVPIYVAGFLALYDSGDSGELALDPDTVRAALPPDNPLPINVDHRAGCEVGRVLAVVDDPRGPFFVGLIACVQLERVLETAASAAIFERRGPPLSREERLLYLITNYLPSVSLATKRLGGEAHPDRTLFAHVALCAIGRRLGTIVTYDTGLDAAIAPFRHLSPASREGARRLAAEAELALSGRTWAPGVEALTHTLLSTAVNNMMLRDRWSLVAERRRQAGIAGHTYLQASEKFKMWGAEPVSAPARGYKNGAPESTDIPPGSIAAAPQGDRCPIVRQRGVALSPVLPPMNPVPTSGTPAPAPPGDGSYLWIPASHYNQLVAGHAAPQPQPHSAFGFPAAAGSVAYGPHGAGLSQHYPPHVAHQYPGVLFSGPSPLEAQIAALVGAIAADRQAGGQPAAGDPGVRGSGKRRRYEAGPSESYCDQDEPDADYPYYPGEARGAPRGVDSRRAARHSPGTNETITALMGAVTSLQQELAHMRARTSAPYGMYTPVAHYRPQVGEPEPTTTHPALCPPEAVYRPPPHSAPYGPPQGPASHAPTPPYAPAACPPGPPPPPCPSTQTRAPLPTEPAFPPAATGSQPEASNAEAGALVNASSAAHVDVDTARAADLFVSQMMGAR
The experiment in a line: Competitive Assay. Particulars: pH 5.52. From the text: The competitive assay requires two inhibitors to act by a purely competitive mechanism, whereas the binding site of on the inhibitors has been established.
As to `CC[C@H](C)[C@H](NC(=O)[C@H](CCC(N)=O)NC(=O)[C@@H]1CCCN1C(=O)CCCCCCCCCCCCCCC(=O)N[C@@H](CO)C(=O)N[C@H](C(=O)N[C@H](C(=O)N[C@@H](CC(N)O)C(=O)N[C@@H](Cc1ccccc1)C(=O)O)C(C)C)[C@@H](C)O)C(=O)N[C@H](C(=O)N[C@@H](CC(C)C)C(=O)N[C@@H](Cc1c[nH]c2ccccc12)C(=O)O)[C@@H](C)O` (stereo partly specified) [Pepstatin analog, 1] (I: PQITLW-OH / II: STV[X1]F-OH; linker I:N-II:N via C16 diacid), the IC50 was found to be 0.35 µM and the inhibition constant Ki is 0.22 µM.
In the case of `CC(C)C[C@H](NC(=O)[C@@H](NC(=O)CCCCCCCCCCCCCCC(=O)N[C@H](CC(N)=O)C(=O)N[C@@H](Cc1ccccc1)C(=O)O)C(C)O)C(=O)NCCc1ccccc1` (stereo partly specified) [Pepstatin analog, 3], the half-maximal inhibitory concentration (IC50) is 5.8 µM.
Compound `CC(C)C[C@@H](NC(=O)[C@H](NC(=O)CCCCCCCCCCCCCCC(=O)N[C@H](CC(N)=O)C(=O)N[C@@H](Cc1ccccc1)C(=O)O)C(C)O)C(=O)NCCc1cccc(O)c1` (stereo partly specified) [Pepstatin analog, 4] yielded an IC50 of 4.4 µM and an inhibition constant Ki of 1.13 µM.
The compound `CC(C)C[C@H](NC(=O)[C@@H](NC(=O)CCCCCCCCCCCCCCC(=O)N[C@H](CC(N)=O)C(=O)N[C@H](Cc1ccccc1)C(=O)O)C(C)O)C(=O)N[C@@H](Cc1ccccc1)C(N)=O` (stereo partly specified) [Pepstatin analog, 2] yielded a concentration for half-maximal inhibition (IC50) of 5.9 µM and an inhibition constant (Ki) of 3 µM.
For `COc1cccc(CCNC(=O)[C@@H](CC(C)C)NC(=O)[C@H](NC(=O)CCCCCCCCCCCCCCC(=O)N[C@H](CC(N)=O)C(=O)N[C@@H](Cc2ccccc2)C(=O)O)C(C)O)c1` (stereo partly specified) [Pepstatin analog, 5], in that order: 4.9 µM and 1.29 µM.

For another assay, the target named is T1, Capsid scaffolding protein. The experiment in a line: Zhang-Poorman Assay. Particulars: pH 5.52.
`COc1ccc(CCNC(=O)[C@@H](CC(C)C)NC(=O)[C@H](NC(=O)CCCCCCCCCCCCCCC(=O)N[C@H](CC(N)=O)C(=O)N[C@@H](Cc2ccccc2)C(=O)O)C(C)O)cc1OC` (stereo partly specified) [Pepstatin analog, 9] had a half-maximal inhibitory concentration (IC50) of 4.3 µM.
`COc1ccc(CCNC(=O)[C@@H](CC(C)C)NC(=O)[C@H](NC(=O)CCCCCCCCCCCCCCC(=O)N[C@H](CC(N)=O)C(=O)N[C@@H](Cc2ccccc2)C(=O)O)C(C)O)cc1` (stereo partly specified) [Pepstatin analog, 7] came in with an IC50 of 2.7 µM and a Ki of 0.72 µM.
`CC(C)C[C@@H](NC(=O)[C@H](NC(=O)CCCCCCCCCCCCCCC(=O)N[C@H](CC(N)=O)C(=O)N[C@@H](Cc1ccccc1)C(=O)O)C(C)O)C(=O)NCCc1ccc(O)cc1` (stereo partly specified) [Pepstatin analog, 6] displayed an IC50 of 5.8 µM.
`CC(C)C[C@@H](NC(=O)[C@H](NC(=O)CCCCCCCCCCCCCCC(=O)N[C@H](CC(N)=O)C(=O)N[C@@H](Cc1ccccc1)C(=O)O)C(C)O)C(=O)NCCc1ccc(O)c(O)c1` (stereo partly specified) [Pepstatin analog, 8] yielded a concentration for half-maximal inhibition (IC50) of 2.9 µM and a Ki of 0.6 µM.
For `CC(C)C[C@@H](NC(=O)[C@H](NC(=O)CCCCCCCCCCCCCCC(=O)N[C@H](CC(N)=O)C(=O)N[C@@H](Cc1ccccc1)C(=O)O)C(C)O)C(=O)NCCc1ccc(Oc2ccc(O)cc2)cc1` (stereo partly specified) [Pepstatin analog, 12], in that order: 0.36 µM and 0.096 µM.
In the case of `CC(C)C[C@@H](NC(=O)[C@H](NC(=O)CCCCCCCCCCCCCCC(=O)N[C@H](CC(N)=O)C(=O)N[C@@H](Cc1ccccc1)C(=O)O)C(C)O)C(=O)NCCc1ccc(N)cc1` (stereo partly specified) [Pepstatin analog, 10], inhibition was half-maximal at 2.5 µM (IC50) and the inhibition constant Ki came to 0.65 µM.
Regarding `CC(C)C[C@@H](NC(=O)[C@H](NC(=O)CCCCCCCCCCCCCCC(=O)N[C@H](CC(N)=O)C(=O)N[C@@H](Cc1ccccc1)C(=O)O)C(C)O)C(=O)NCCc1ccc(Oc2ccccc2)cc1` (stereo partly specified) [Pepstatin analog, 11], inhibition was half-maximal at 0.73 µM (IC50) and the affinity corresponds to a Ki of 0.175 µM.

One may read the IC50 as the midpoint of a concentration-inhibition curve. Read a low IC50 as higher potency. For orientation: Ki means the equilibrium dissociation constant of an inhibitor or competing ligand from its target.
